Test results: patent EP2433624B1, “Use of buparvaquone for controlling mites parasitising honeybees” (Bimeda International Pharmaceuticals Limited, priority 2010, dated 2012)
Values joined by “and” are separate entries in the source; they are usually repeats but may differ in a detail not shown here. Equal values may be shown once. Read-outs that look alike come from different tables or passages of the source.

How the values were obtained:
[1] = Toxicity of BPQ B to honeybee larvae when fed treated syrup; format: in vivo, Apis mellifera; settings: honeybee, in vivo, po, read-out: % Emergence
From the text: (§1) To measure the effect of treatment on developing larvae when fed syrup treated with BPQ powder, BPQ B, dissolved in the solvent (N-methyl pyrollidone) and diluted in an aqueous solution.
(§2) Apidae boxes were used to raise young queens and when virgin queens started to lay an area 6cm x 3cm were marked and missing cells were noted. The miniature colony was fed treated syrup, which was made by dissolving BPQ B powder in solvent, followed by serial dilutions using a sucrose solution (2 parts sugar: 1 part water). The concentrations administered are given below. Two replicates were carried out for the product, while 1 colony (apidae) was used for each of the solvent concentrations.

honeybee larvae = experiment: as above; format: in vivo, Apis mellifera; settings: for Sealed cells / Young bees emerged: 40 cells
From the text: as §1, §2

Varroa mites [2] = experiment: Efficacy of BPQ B against Varroa mites on honeybees fed treated sucrose solution; format: in vivo
Procedure: (§3) Example 6 - Toxicity of BPQ B to Varroa mites on honeybees when fed treated sucrose solution
To estimate the percentage efficacy of BPQ at different concentrations in sucrose solution
(§4) A total of 20 newly emerged Varroa infested bees were placed in hoarding cages. The cages were prepared as described in Section 1.0, except that the air vents were reduced in size using parafilm to prevent the Varroa mites escaping during the test period. The mean(±se) number of mites per 20 bees was estimated prior to commencement of the experiment and an additional 5 mites per cage were added. (mean±se = 10.6±0.33). This was carried out by collecting adult female mite from drone pupae, placing them in an eppendorf tube and then releasing them into the cages.
(§5) The treatment solution was made by dissolving BPQ B in solvent, followed by two aqueous serial dilutions producing a concentration of 500µg/mL and 5 µg/mL. From the latter, further serial dilutions were carried with sucrose solution producing the following concentrations: • 0.5µg/mL. (C1-C3) • 0.05µg/mL. (D1-D3) • 0.005µg/mL. (E1-E3) • 0.0005µg/mL. (F1-F3) • 0.00005µg/mL (G1-G3)
(§6) Three replicates were established at each concentration plus a control group which were only fed sugar syrup. All cages were placed in the incubator at 32°C and monitored on a daily basis for the number of mites and number of bees knocked down. At the end of five day treatment period, the percentage efficacy of the treatment was estimated by treating bees in all cages with Apistan (Trade Mark of Vita (Europe) Ltd. Apistan contains fluvalinate which is a synthetic pyrethroid. % efficacy = mites knocked from treatment/total mites (treatment+Apistan)*100 [formula]

honeybees [3] = experiment: Bee survival in the test with BPQ B fed in sucrose solution; format: in vivo, Apis mellifera
Procedure: as §3, §4, §5
Three replicates were established at each concentration plus a control group which were only fed sugar syrup. All cages were placed in the incubator at 32°C and monitored on a daily basis for the number of mites and number of bees knocked down. […]

Varroa mites [4] = experiment: Efficacy of BPQ B against Varroa mites on honeybees sprayed with an aqueous solution; format: in vivo; settings: sprayed as an aqueous solution, preliminary
Procedure: (§7) Example 7 - Toxicity of BPQ B to Varroa mites on honeybees when sprayed with an aqueous solution of the active ingredient
To estimate the percentage efficacy of BPQ B at different concentrations when sprayed as an aqueous solution onto adult bees
(§8) A total of 20 newly emerged Varroa infested bees were placed in hoarding cages. The cages were prepared as described in Section 1.0, except that the air vents were reduced in size using parafilm to prevent the Varroa mites escaping during the test period. The mean(±se) number of mites per 20 bees was estimated prior to commencement and an additional 10 mites per cage were added. Mites were collected and introduced as described above. The treatment solution was made by dissolving BPQ B in solvent, followed by two aqueous serial dilutions producing a concentration of 500µg/mL and 5µg/mL. From the latter, further serial dilutions were carried in water producing the following concentrations: • 0.5µg/mL. (C1-C3) • 0.05µg/mL. (D1-D3) • 0.005µg/mL. (E1-E3) • 0.0005µg/mL. (F1-F3) • 0.00005µg/mL (G1-G3)
as §6, with “sprayed with water only. All test groups were” for “only”, “10mL of 1:1 sucrose:water solution and” for “sugar syrup. All cages were”, “Apistan.” for “Apistan (Trade Mark of Vita (Europe) Ltd. Apistan contains fluvalinate which is a synthetic pyrethroid.”

honeybees [5] = experiment: Survival of bees sprayed with aqueous solutions of BPQ; format: in vivo, Apis mellifera; settings: sprayed as an aqueous solution
Procedure: as §7, §8
as §6, with “sprayed with water only. All test groups were” for “only”, “10mL of 1:1 sucrose:water solution and” for “sugar syrup. All cages were”, “Apistan.” for “Apistan (Trade Mark of Vita (Europe) Ltd. Apistan contains fluvalinate which is a synthetic pyrethroid.”

[6] = 0.00005µg/mL (g1) in sucrose fed to colony
[7] = 0.0005µg/mL (f1-f2) in sucrose fed to colony
[8] = 0.005µg/mL (e1-e2) in sucrose fed to colony
[9] = 0.05µg/mL (d1-d2) in sucrose fed to colony
[10] = 0.5µg/mL (c1-c2) in sucrose fed to colony
[11] = 0.00005µg/mL (g1-g3) in sucrose solution fed to 20 infested bees per cage

CC(C)(C)[C@H]1CC[C@H](CC2=C(O)C(=O)c3ccccc3C2=O)CC1 [BPQ B, buparvaquone]
survival [1, 6]: 96.8%
survival [1, 7]: 70.3%
survival [1, 8]: 82.4%
survival [1, 9]: 81.8%
survival [1, 10]: 85.7%
Sealed cells (honeybee larvae; [6]): 30
Young bees emerged (honeybee larvae; [6]): 30
% Emergence (honeybee larvae; [7]): 87.5%
Sealed cells (honeybee larvae; [7]): 32 and 30
Young bees emerged (honeybee larvae; [7]): 26 and 28
% Emergence (honeybee larvae; [8]): 86.5%
Sealed cells (honeybee larvae; [8]): 31 and 37
Young bees emerged (honeybee larvae; [8]): 28 and 32
% Emergence (honeybee larvae; [9]): 69.7%
Sealed cells (honeybee larvae; [9]): 30 and 29
Young bees emerged (honeybee larvae; [9]): 27 and 23
% Emergence (honeybee larvae; [10]): 93.9%
Sealed cells (honeybee larvae; [10]): 32 and 33
Young bees emerged (honeybee larvae; [10]): 30 and 31
toxicity for bee larvae (honeybee larvae; powder dissolved in NMP, diluted in water then sugar solution, any concentration): No toxicity
daily Varroa mite drop down, Day 4 (Varroa mites [2]; [11]): 0
daily Varroa mite drop down, Day 6 (Varroa mites [2]; [11]): 0
daily Varroa mite drop down, Day 2 (Varroa mites [2]; 0.0005µg/mL (f1-f3) in sucrose solution fed to 20 infested bees per cage): 7 and 9
effective in Varroa knockdown (Varroa mites [2]; 0.0005µg/mL, fed in sugar solution): > 80%
daily Varroa mite drop down, Day 5 (Varroa mites [2]; 0.05µg/mL (d1-d3) in sucrose solution fed to 20 infested bees per cage): 1
daily Varroa mite drop down, Day 6 (Varroa mites [2]; 0.5µg/mL (c1-c3) in sucrose solution fed to 20 infested bees per cage): 1 and 2
maximum efficacy (Varroa mites [2]; fed in a sucrose solution, treatment f (0.0005µg/mL), 5 day treatment): approximately 82%
minimum efficacy (Varroa mites [2]; fed in a sucrose solution, treatment g (0.00005µg/mL), 5 day treatment): 43.8%
bee survival (honeybees [3]; fed in a sucrose solution, day 5): no negative effects
toxicity for bees (honeybees [3]; powder dissolved in NMP, diluted in water then sugar solution, tested over 5 days, any concentration): No toxicity
mean minimum efficacy (Varroa mites [4]; treatment d (0.05µg/mL)): 28.4%
mean maximum efficacy (Varroa mites [4]; treatment g (0.00005µg/mL)): 46.2%
percentage efficacy against the Varroa mite (Varroa mites [4]): low
toxicity to bees (honeybees [5]): very low
